Test results reported in patent publication US20170368082A1, “FORMULATIONS OF BRINCIDOFOVIR” (priority 2016, published 2017).

Assay: Tissue distribution by quantitative whole-body autoradiography (QWBA)
Format: in vivo, male Sprague Dawley and Long-Evans rats
Settings: for AUCall Ratio (PO/IV) / Cmax Ratio (PO/IV): Group 7 vs Group 4
Description: The study utilized 4 groups of male SD rats (albino), and 3 groups of male LE rats (pigmented); a total of 39 rats. All animals were obtained from Hilltop Lab Animals, Inc. (Scottdale, Pa.). […] Rats in Group 5 were administered a single 2-h IV infusion of [^14C]brincidofovir at a target dose of 2 mg/kg. […] Three dosing formulations (one for high dose IV, one for low dose IV, and one for PO dose) were prepared at QPS on the day of dosing. The IV formulation for Groups 1, 2, 3, and 4 contained a vehicle of 10 mM sodium phosphate buffer in 5% dextrose solution at pH 8.0(±0.1).
Each animal, at their respective termination time points, was euthanized for QWBA analysis immediately after blood collection. One rat per time point per Group was euthanized as listed below.
The blood samples were maintained on wet ice (approximately 4° C.) and then centrifuged to obtain plasma within 1 h of the blood collection time. Centrifuge settings were recorded in the study notebook. Duplicate aliquots of plasma (0.050 mL) were analyzed for radioactivity using direct counting by LSC, and residual plasma was stored at approximately −70° C. and was saved for possible future analysis under a separate study protocol. Residual red blood cells were discarded as radioactive waste.
The pinna, distal limbs, hair, and tail were removed from each frozen carcass and each frozen carcass was embedded in an aqueous suspension of approximately 2% (w/v) carboxymethylcellulose and frozen into a block. The blocks were stored at approximately −20° C. prior to sectioning. Each blocked carcass was mounted on the object stage of a cryomicrotome (Leica CM3600 Cryomacrocut, Nussloch, Germany and Vibratome 9800, St. Louis, Mo.) maintained at approximately −20° C. and internal standards (3), which were plasma fortified with [^14C]-glucose at one concentration (approximately 0.05 μCi/mL), were placed into the frozen blocks, prior to sectioning, and were used for section thickness quality control. A number of whole-body sections (approximately 40 μm thick) were taken in the sagittal plane at various levels of interest using a whole-body cryomicrotome set at −20° C. Sagittal sections (20-50 μm thick) of frozen carcasses were exposed to phosphor imaging plates. Regions of images in tissues were converted to concentrations using standards. All of the major tissues, organs, and biological fluids were represented.
Tissue concentration data was determined for the following tissues and/or contents: adipose (brown and white), adrenal gland, bile (in duct), blood (cardiac), bone, bone marrow, brain (cerebrum, cerebellum, medulla), cecum (and contents), large intestine (and contents), epididymis, esophagus, eye (uvea and lens), Harderian gland, heart, kidney (cortex and medulla), liver, lung, lymph node, pancreas, pituitary gland, prostate gland, salivary gland, seminal vesicles, skeletal muscle, skin (pigmented and non-pigmented), small intestine (and contents), stomach (gastric mucosa and contents), spleen, spinal cord, testis, thymus, thyroid, and urinary bladder (and contents).
The imaging plate and sections were placed in light-tight exposure cassettes, in a copper-lined lead safe, for a 4-day exposure at room temperature. […] Quantification was performed by image densitometry using MCD image analysis software (v. 7.0, Interfocus Imaging Ltd) and a standard curve constructed from the integrated response [i.e., Molecular Dynamics Counts per square millimeter (MDC/mm^2)] and the nominal concentrations of the ^14C-calibration standards. The concentrations of radioactivity were expressed as the μg equivalents of [^14C]brincidofovir per gram sample (μg equiv/g). A lower limit of quantification (LLOQ) was applied to the data (See section 6.7.4).
Tissue concentrations that fell below the LLOQ were identified as being below the quantification limit (BQL). Tissue areas that were not visualized on autoradiographic images were identified as no sample (NS) and reported as BQL.

Question: Which “Tissue Concentration (168 h)” value (Skin (non-pigmented), 2 h IV infusion 15 mg/kg, Group 4, LLOQ 0.036) does the source give for `CCCCCCCCCCCCCCCCOCCCOP(=O)(O)CO[C@H](CO)Cn1ccc(N)nc1=O` [[^14C] brincidofovir] here?
Answer: 0.226 μg equiv/g

Question: What about the “Tissue Concentration (168 h)” value (Skin (non-pigmented), PO 15 mg/kg, Group 7, LLOQ 0.034) of the same compound?
Answer: BQL

Question: What about the AUCall (Skin (non-pigmented), PO 15 mg/kg, Group 7) of the same compound?
Answer: 14.0275 μg equiv · h/g

Question: And the “AUCall Ratio (PO/IV)” value (Skin (pigmented), 15 mg/kg)?
Answer: 0.18

Question: And the “Cmax Ratio (PO/IV)” value (Skin (pigmented), 15 mg/kg)?
Answer: 0.15

Question: What about the AUCall (Skin (pigmented), 2 h IV infusion 15 mg/kg, Group 4) of the same compound?
Answer: 95.5050 μg equiv · h/g

Question: What about the “Tissue Concentration (168 h)” value (Skin (pigmented), 2 h IV infusion 15 mg/kg, Group 4, LLOQ 0.036) of the same compound?
Answer: 0.09 μg equiv/g

Question: What about the “Tissue Concentration (168 h)” value (Skin (pigmented), PO 15 mg/kg, Group 7, LLOQ 0.034) of the same compound?
Answer: BQL

Question: What about the AUCall (Skin (pigmented), PO 15 mg/kg, Group 7) of the same compound?
Answer: 17.0405 μg equiv · h/g

Question: And the “AUCall Ratio (PO/IV)” value (Small Intestine, 15 mg/kg)?
Answer: 8.25

Question: And the “Cmax Ratio (PO/IV)” value (Small Intestine, 15 mg/kg)?
Answer: 6.45

Question: What about the AUCall (Small Intestine, 2 h IV infusion 15 mg/kg, Group 4) of the same compound?
Answer: 1160.650 μg equiv · h/g

Question: What about the “Tissue Concentration (168 h)” value (Small Intestine, 2 h IV infusion 15 mg/kg, Group 4, LLOQ 0.036) of the same compound?
Answer: 0.339 μg equiv/g

Question: What about the “Tissue Concentration (168 h)” value (Small Intestine, PO 15 mg/kg, Group 7, LLOQ 0.034) of the same compound?
Answer: 5.867 μg equiv/g

Question: What about the AUCall (Small Intestine, PO 15 mg/kg, Group 7, 15 mg/kg) of the same compound?
Answer: 9575.18 μg equiv · h/g

Question: And the “AUCall Ratio (PO/IV)” value (Spinal Cord, 15 mg/kg)?
Answer: 0.02

Question: What about the “Cmax Ratio (PO/IV)” value (Spinal Cord, 15 mg/kg) of the same compound?
Answer: 0.04

Question: What about the AUCall (Spinal Cord, 2 h IV infusion 15 mg/kg, Group 4) of the same compound?
Answer: 5.7830 μg equiv · h/g

Question: And the “Tissue Concentration (168 h)” value (Spinal Cord, 2 h IV infusion 15 mg/kg, Group 4, LLOQ 0.036)?
Answer: BQL

Question: What about the “Tissue Concentration (168 h)” value (Spinal Cord, PO 15 mg/kg, Group 7, LLOQ 0.034) of the same compound?
Answer: BQL

Question: What about the AUCall (Spinal Cord, PO 15 mg/kg, Group 7) of the same compound?
Answer: 0.1110 μg equiv · h/g

Question: What about the “AUCall Ratio (PO/IV)” value (Spleen, 15 mg/kg) of the same compound?
Answer: 0.27

Question: And the “Cmax Ratio (PO/IV)” value (Spleen, 15 mg/kg)?
Answer: 0.18

Question: What about the AUCall (Spleen, 2 h IV infusion 15 mg/kg, Group 4) of the same compound?
Answer: 642.3590 μg equiv · h/g

Question: And the “Tissue Concentration (168 h)” value (Spleen, 2 h IV infusion 15 mg/kg, Group 4, LLOQ 0.036)?
Answer: 0.892 μg equiv/g

Question: What about the “Tissue Concentration (168 h)” value (Spleen, PO 15 mg/kg, Group 7, LLOQ 0.034) of the same compound?
Answer: 0.274 μg equiv/g

Question: What about the AUCall (Spleen, PO 15 mg/kg, Group 7) of the same compound?
Answer: 172.2208 μg equiv · h/g

Question: And the “AUCall Ratio (PO/IV)” value (Stomach (mucosa), 15 mg/kg)?
Answer: 1.29

Question: What about the “Cmax Ratio (PO/IV)” value (Stomach (mucosa), 15 mg/kg) of the same compound?
Answer: 4.75

Question: And the AUCall (Stomach (mucosa), 2 h IV infusion 15 mg/kg, Group 4)?
Answer: 70.2310 μg equiv · h/g

Question: And the “Tissue Concentration (168 h)” value (Stomach (mucosa), 2 h IV infusion 15 mg/kg, Group 4, LLOQ 0.036)?
Answer: 0.069 μg equiv/g

Question: And the “Tissue Concentration (168 h)” value (Stomach (mucosa), PO 15 mg/kg, Group 7, LLOQ 0.034)?
Answer: 0.042 μg equiv/g

Question: What about the AUCall (Stomach (mucosa), PO 15 mg/kg, Group 7) of the same compound?
Answer: 90.7575 μg equiv · h/g

Question: And the “AUCall Ratio (PO/IV)” value (Testis, 15 mg/kg)?
Answer: 0.39

Question: What about the “Cmax Ratio (PO/IV)” value (Testis, 15 mg/kg) of the same compound?
Answer: 0.17

Question: And the AUCall (Testis, 2 h IV infusion 15 mg/kg, Group 4)?
Answer: 77.2835 μg equiv · h/g

Question: What about the “Tissue Concentration (168 h)” value (Testis, 2 h IV infusion 15 mg/kg, Group 4, LLOQ 0.036) of the same compound?
Answer: 0.098 μg equiv/g

Question: What about the “Tissue Concentration (168 h)” value (Testis, PO 15 mg/kg, Group 7, LLOQ 0.034) of the same compound?
Answer: 0.041 μg equiv/g

Question: And the AUCall (Testis, PO 15 mg/kg, Group 7)?
Answer: 30.3920 μg equiv · h/g

Question: And the “AUCall Ratio (PO/IV)” value (Thymus, 15 mg/kg)?
Answer: 0.13

Question: And the “Cmax Ratio (PO/IV)” value (Thymus, 15 mg/kg)?
Answer: 0.11

Question: And the AUCall (Thymus, 2 h IV infusion 15 mg/kg, Group 4)?
Answer: 92.4355 μg equiv · h/g

Question: What about the “Tissue Concentration (168 h)” value (Thymus, 2 h IV infusion 15 mg/kg, Group 4, LLOQ 0.036) of the same compound?
Answer: 0.1 μg equiv/g

Question: And the “Tissue Concentration (168 h)” value (Thymus, PO 15 mg/kg, Group 7, LLOQ 0.034)?
Answer: BQL

Question: What about the AUCall (Thymus, PO 15 mg/kg, Group 7) of the same compound?
Answer: 12.0843 μg equiv · h/g

Question: What about the “AUCall Ratio (PO/IV)” value (Thyroid, 15 mg/kg) of the same compound?
Answer: 0.13

Question: What about the “Cmax Ratio (PO/IV)” value (Thyroid, 15 mg/kg) of the same compound?
Answer: 0.13

Question: What about the AUCall (Thyroid, 2 h IV infusion 15 mg/kg, Group 4) of the same compound?
Answer: 238.0230 μg equiv · h/g

Question: And the “Tissue Concentration (168 h)” value (Thyroid, 2 h IV infusion 15 mg/kg, Group 4, LLOQ 0.036)?
Answer: 0.459 μg equiv/g

Question: And the “Tissue Concentration (168 h)” value (Thyroid, PO 15 mg/kg, Group 7, LLOQ 0.034)?
Answer: 0.038 μg equiv/g

Question: What about the AUCall (Thyroid, PO 15 mg/kg, Group 7) of the same compound?
Answer: 31.3395 μg equiv · h/g

Question: And the “AUCall Ratio (PO/IV)” value (Urinary Bladder, 15 mg/kg)?
Answer: 0.52

Question: What about the “Cmax Ratio (PO/IV)” value (Urinary Bladder, 15 mg/kg) of the same compound?
Answer: 0.16

Question: And the AUCall (Urinary Bladder, 2 h IV infusion 15 mg/kg, Group 4)?
Answer: 215.5480 μg equiv · h/g

Question: And the “Tissue Concentration (168 h)” value (Urinary Bladder, 2 h IV infusion 15 mg/kg, Group 4, LLOQ 0.036)?
Answer: BQL

Question: What about the “Tissue Concentration (168 h)” value (Urinary Bladder, PO 15 mg/kg, Group 7, LLOQ 0.034) of the same compound?
Answer: 0.076 μg equiv/g

Question: What about the AUCall (Urinary Bladder, PO 15 mg/kg, Group 7) of the same compound?
Answer: 111.2445 μg equiv · h/g
